This note sets out measurements from US11084826B2, “RSV antiviral pyrazolo- and triazolo-pyrimidine compounds” (Janssen Sciences Ireland Unlimited Company, priority 2015, dated 2021).

Each structure is given as a SMILES string.

The nature of data set [1]: Cytotoxicity in HeLa cells, ATP content measured with the ATPlite kit. The data set is classed as cell-based. Conditions: human, TOX HELA pCC50. The method, then: (§1) Black 384-well clear-bottom microtiter plates (Corning, Amsterdam, The Netherlands) were filled via acoustic drop ejection using the echo liquid handler (Labcyte, Sunnyvale, Calif.). 200 nL of compound stock solutions (100% DMSO) were transferred to the assay plates. 9 serial 4-fold dilutions of compound were made, creating per quadrant the same compound concentration. The assay was initiated by adding 10 μL of culture medium to each well (RPMI medium without phenol red, 10% FBS-heat inactivated, 0.04% gentamycin (50 mg/mL). All addition steps are done by using a multidrop dispenser (Thermo Scientific, Erembodegem, Belgium). Next, rgRSV224 virus (MOI=1) diluted in culture medium was added to the plates. rgRSV224 virus is an engineered virus that includes an additional GFP gene (Hallak LK, Spillmann D, Collins PL, Peeples Me. Glycosaminoglycan sulfation requirements for respiratory syncytial virus infection; Journal of virology (2000), 74(22), 10508-13) and was in-licensed from the NIH (Bethesda, Md., USA). Finally, 20 μL of a HeLa cell suspension (3,000 cells/well) were plated. Medium, virus- and mock-infected controls were included in each test. The wells contain 0.05% DMSO per volume. Cells were incubated at 37° C. in a 5% CO2 atmosphere. Three days post-virus exposure, viral replication was quantified by measuring GFP expression in the cells by an in house developed MSM laser microscope (Tibotec, Beerse, Belgium). The EC50 was defined as the 50% inhibitory concentration for GFP expression. In parallel, compounds were incubated for three days in a set of white 384-well microtiter plates (Corning) and the cytotoxicity of compounds in HeLa cells was determined by measuring the ATP content of the cells using the ATPlite kit (Perkin Elmer, Zaventem, Belgium) according to the manufacturer's instructions. The CC50 was defined as the 50% concentration for cytotoxicity.

A further data set has as its system rgRSV224 virus. Description: Antiviral activity: inhibition of rgRSV224 (GFP-expressing RSV) replication in HeLa cells, GFP expression read-out. The data set is classed as cell-based, respiratory syncytial virus (RSV). Conditions: human respiratory syncytial virus, HeLa, read-out: RSV HELA pEC50, rgRSV224 virus (MOI=1) in HeLa cells, GFP read-out (converted). As for the experimental part: as §1

By CC50 is commonly meant the concentration at which the toxic effect on the cells reaches its halfway point. Higher therefore signals lower toxicity to the cells. As to `CCc1cc(C(=O)N2CCCCC[C@H]2C)nc2cc(-c3ccc(C4[C@@H](C(=O)O)C4(F)F)cc3F)nn12` (mixture of isomers) [Compound O18], in data set [1], half-maximal cytotoxicity (CC50 at 3 days) was put at 53700 nM. Besides, the EC50 in the data set with rgRSV224 virus is 191 nM.

As for `CCc1cc(C(=O)N2CCCCCC2C)nc2cc(-c3ccc(-c4c[nH]cn4)cc3F)nn12` (centres unmarked) [Compound F16], in data set [1], the CC50 at 3 days was above 25100 nM. Also, in the data set on rgRSV224 virus, the EC50 was 145 nM.

`CCc1cc(C(=O)N2CCCn3cccc3C2C)nc2cc(-c3ccc(-c4ccc(C(=O)O)cn4)cc3F)nn12` (racemic) [Compound F59] yielded a CC50 at 3 days in data set [1] above 25100 nM. Further, in the data set with rgRSV224 virus, the EC50 was 191 nM.

In turn, `CCc1cc(C(=O)N2CCCCCC2C)nc2cc(-c3ccc(-c4cn[nH]c4)cc3F)nn12` (centres unmarked) [Compound F6] had a CC50 at 3 days in data set [1] above 25100 nM. Besides, the EC50 in the data set on rgRSV224 virus is 355 nM.

`CNc1cc(C(=O)N2CCc3ccccc3[C@H]2C)nc2cc(-c3ccc(/C=C/C(=O)O)cc3F)nn12` [Compound M14] had a CC50 at 3 days in data set [1] of 15800 nM. Also, the EC50 in the data set on rgRSV224 virus is 24 nM.

Take `CCc1cc(C(=O)N2CCCCC[C@H]2C)nc2cc(-c3ccc(-n4cc(C(=O)O)c(C)n4)cc3F)nn12` (racemic) [Compound W25]: in data set [1], it took 66100 nM to reach half-maximal cytotoxicity (CC50 at 3 days). In addition, the EC50 in the data set on rgRSV224 virus is 93.3 nM.

In data set [1], `CC1CCCCCN1C(=O)c1cc(CC2CCCCC2)n2nc(-c3ccccc3F)cc2n1` (centres unmarked) [Compound A20] returned a CC50 at 3 days above 25100 nM. Moreover, the EC50 with rgRSV224 virus was 6310 nM.

In the case of `C[C@@H]1CCCCCN1C(=O)c1cc(C2CCC2)n2nc(-c3ccc(N4CC[C@H](C(=O)O)C4)cc3F)cc2n1` [Compound W31], the CC50 at 3 days in data set [1] was 49000 nM. Further, the EC50 in the data set on rgRSV224 virus is 12.6 nM.

`CCc1cc(C(=O)N2CCc3ccccc3C2C)nc2cc(-c3ccc(/C=C(\C)C(=O)O)cc3F)nn12` (centres unmarked) [Compound M17] showed a CC50 at 3 days in data set [1] of 17400 nM. Moreover, in the data set with rgRSV224 virus, the EC50 was 63.1 nM.

In turn, `CCc1cc(C(=O)N2CCCCC[C@H]2C)nc2cc(-c3ccc(N4CCC[C@H](C(=O)O)C4)cc3F)nn12` [Compound W5] had a CC50 at 3 days in data set [1] of 95500 nM. The EC50 with rgRSV224 virus was 89.1 nM.

For `C[C@@H]1CCCCCN1C(=O)c1cc(C2(C)COC2)n2nc(-c3cccc(/C=C/C(=O)O)c3F)cc2n1` [Compound M33], in data set [1], the CC50 at 3 days is above 100000 nM. Further, the EC50 in the data set with rgRSV224 virus is 102 nM.

Consider `C[C@@H]1CCCCCN1C(=O)c1cc(C2(C)CC2)n2nc(-c3ccc(N4CC[C@H](C(=O)O)C4)cc3F)cc2n1` [Compound W30], for which, in data set [1], it took 50100 nM to reach half-maximal cytotoxicity (CC50 at 3 days). Further, in the data set with rgRSV224 virus, the EC50 is 17.4 nM.

Consider `CCc1cc(C(=O)N2CCCCCC2C)nc2cc(-c3cc(NC(=O)C4CC4)ccc3F)nn12` (centres unmarked) [Compound E12], for which the CC50 at 3 days in data set [1] was 60300 nM. For the same compound, the EC50 in the data set on rgRSV224 virus is 447 nM.

As to `C[C@@H]1CCCCCN1C(=O)c1cc(C2CC2)n2nc(-c3cccc([C@H]4C[C@@H]4C(=O)O)c3F)cc2n1` [Compound O6], in data set [1], the cytotoxic concentration (CC50) at 3 days is 97700 nM. For the same compound, the EC50 with rgRSV224 virus is 148 nM.

The compound `CCc1cc(C(=O)N2CCCCC[C@H]2C)nc2cc(-c3ccc(C4C[C@H]4C(=O)O)cc3F)nn12` (single isomer, unassigned) [Compound O2] registered a CC50 at 3 days in data set [1] above 25100 nM. Besides, the EC50 in the data set with rgRSV224 virus was 58.9 nM.

For the compound `CCc1cc(C(=O)N2CCCCC[C@H]2C)nc2cc(-c3ccc(/C=C/C(=O)O)c(OC)c3F)nn12` [Compound M32], the CC50 at 3 days in data set [1] is 66100 nM. The EC50 in the data set on rgRSV224 virus is 178 nM.

For `CCc1cc(C(=O)N2CCc3ccccc3C2C)nc2cc(-c3ccc(-c4ccc(C(=O)O)nc4)cc3F)nn12` (centres unmarked) [Compound F22], it took 6920 nM to reach half-maximal cytotoxicity in data set [1] (CC50 at 3 days). Further, the EC50 in the data set on rgRSV224 virus was 35.5 nM.

In data set [1], `CCc1cc(C(=O)N2CCCCC[C@H]2C)nc2cc(-c3ccc(N(C)[C@H]4C[C@H](C(=O)O)C4)cc3F)nn12` (racemic) [Compound W22] showed a CC50 at 3 days of 87100 nM. Moreover, the EC50 with rgRSV224 virus was 45.7 nM.

`CCc1cc(C(=O)N2CCn3c(Cl)ccc3C2C)nc2cc(-c3ccc(-c4ccc(C(=O)O)cn4)cc3F)nn12` (racemic) [Compound F56] yielded a CC50 at 3 days in data set [1] above 100000 nM. Further, the EC50 with rgRSV224 virus is 155 nM.
